Literature values as cited in article PMC13343212, “Hybrid Aminoferrocenes With Nitrate Esters for In Situ Peroxynitrite Generation: Complex Interplay Between Redox Chemistry, NO‐Donor Reactivity, and Aminoferrocene Activation Influences In Vitro Anticancer Activity” (Chembiochem, 2026).

Conditions: references for RP‐TLC calibration

c1ccc2cc3ccccc3cc2c1 [anthracene]
LogP of known references: 4.50

c1cc2cccc3c4cccc5cccc(c(c1)c23)c54 [perylene]
LogP of known references: 6.25
